The values that follow come from paper PMC10045663, “Synthesis, In Vitro Biological Evaluation of Antiproliferative and Neuroprotective Effects and In Silico Studies of Novel 16E-Arylidene-5α,6α-epoxyepiandrosterone Derivatives” (Biomedicines, 2023).

Assay [1] relates to NHDF cells (normal human dermal fibroblasts). Kind of assay: MTT cell proliferation assay, NHDF cells. Type of assay: cell-based. The note with it: 72 h, non-tumoral cells, read-out: Estimated IC50, NHDF. On the procedure: (§1) LNCaP, PC-3, MCF-7, PNT1A, N27, and NHDF cells were obtained from the American Type Culture Collection (ATCC; Manassas, VA, USA) and were cultured in 75 cm^2 culture flasks at 37 °C in a humidified air incubator with 5% CO2. LNCaP, PC-3, PNT1A, and N27 cells, respectively, were cultured in RPMI 1640 medium (Sigma-Aldrich, Inc. St. Louis, MO, USA) with 10% fetal bovine serum (FBS; Sigma-Aldrich, Inc. St. Louis, MO, USA) and 1% of the antibiotic mixture of 10,000 U/mL penicillin G and […] streptomycin (Sp, Sigma-Aldrich, Inc. St. Louis, MO, USA). MCF-7 cells were cultured in DMEM medium (Sigma-Aldrich, Inc. St. Louis, MO, USA) supplemented with 10% fetal bovine serum (FBS; Sigma-Aldrich, Inc. St. Louis, MO, USA) and 1% antibiotic/antimycotic (10,000 U/mL penicillin G, […] streptomycin, and 25 µg/mL amphotericin B: Ab, Sigma-Aldrich, Inc. St. Louis, MO, USA). Finally, NHDF cells were cultured in RPMI 1640 medium supplemented with 10% FBS, 2 mM L-glutamine, 10 mM HEPES, 1 mM sodium pyruvate, and 1% of the antibiotic/antimycotic Ab, and these cells were used in passages 10th to 14th. For all cell types, the medium was renewed every 2 days until cells nearly reached the confluence state. When cells reach approximately 90–95% confluence, they are gently detached by trypsinization (trypsin-EDTA solution: 0.125 g/L of trypsin and 0.02 g/L of EDTA). Before each experiment, viable cells were counted in a Neubauer chamber by a trypan-blue exclusion assay and adequately diluted in the appropriate complete cell culture medium.
(§2) All tested compounds were dissolved in dimethyl sulfoxide (DMSO; Sigma-Aldrich, Inc. St. Louis, MO, USA) at a concentration of 10 mM and stored at 4 °C. From the mother-solutions, the diluted solutions of the compounds, in different concentrations, were prepared in the respective complete culture medium before each experiment.
(§3) After reaching a confluence state, cells were trypsinized and counted by the trypan-blue exclusion assay and then seeded with an initial density of 2 × 10^4 cells/mL in 96-well culture plates (Nunc, Apogent, Denmark) and left to adhere and grow for 48 h. Subsequently, the medium was removed, and the cells were treated with compound solutions (10 and 50 µM for preliminary studies and 0.01, 0.1, 1, 10, 50, and 100 µM for concentration-response studies) in complete culture medium for 72 h. 5-Fluorouracil (5-FU) was used as a positive control, and untreated cells were used as the negative control. Compounds leading to cell proliferation relative to control clearly below 50%, at 10 µM, or clearly below 25%, at 50 µM, in the screening studies were selected to concentration-response studies in tumoral cell lines. Each experiment was performed in quadruplicate and independently at least two times. The in vitro antiproliferative effects were evaluated by the MTT assay (Sigma-Aldrich, Inc. St. Louis, MO, USA). After the incubation period, the medium was removed, and 100 µL of phosphate buffer saline (PBS, NaCl 137 mM; KCl 2.7 mM; Na2HPO4 10 mM; and KH2PO4 1.8 mM in deionized water with a pH adjusted to 7.4) were used to wash the cells. Then, 100 µL of the MTT solution (5 mg/mL) was prepared in the appropriate serum-free medium and added to each well, followed by incubation for 4 h at 37 °C. Hereafter, the MTT containing medium was removed, and the formazan crystals were dissolved in DMSO. Then, the absorbance was measured at 570 nm using a xMarkTM microplate spectrophotometer from BIO-RAD Laboratories. Cell viability values were expressed as percentages relative to the negative control.

For assay [2], the system named is PNT1A (normal prostate cells). The assay can be described thus: MTT cell proliferation assay, PNT1A cells. Format: cell-based. The note with it: 72 h, non-tumoral cells, read-out: Estimated IC50, PNT1A. The procedure: as §1, §2, §3
For assay [3], the system named is N27 (rat dopaminergic neuronal cells). Kind of assay: MTT cell proliferation assay, N27 cells. Type of assay: cell-based. The note with it: 72 h, non-tumoral cells, read-out: Estimated IC50, N27. On the procedure:
as §1, §2, §3

Assay [4] has as its system PC-3 cells (androgen-independent prostatic cancer). Kind of assay: MTT cell proliferation assay, PC-3 cells. Format: cell-based. The note with it: PC-3, 50 µM, 72 h. On the procedure: as §1, §2, §3
Background: Formazan colour is commonly taken as a measure of viable cells.

For assay [5], the system named is N27 cells. The assay can be described thus: N27 cell viability after 24 h (MTT), substance alone. Format: cell-based, rat. The note with it: for effect on N27 cell viability: 10 µM alone; for fold-increase in cell viability compared to 10 µM of the respective compound / fold-increase in cell viability compared to the control: 50 µM alone. On the procedure:
The immortalized rat mesencephalic dopaminergic cell line (N27 cells; a kind gift from Dr. Yoon-Seong Kim, Burnett School of Biomedical Sciences, University of Central Florida) was grown in Roswell Park Memorial Institute (RPMI) 1640 medium (Sigma-Aldrich) containing 2 g/L sodium bicarbonate, 10% fetal bovine serum (FBS; Millipore), and 1 mL/L of penicillin/streptomycin (GIBCO) in a humidified atmosphere of 5% CO2 at 37 °C. Cells were plated at a density of 0.31 × 10^5 cells per cm^2 in 96-well culture plates. […] To assess cell viability, MTT reduction was performed as previously described (Section 2.3) with some modifications. Briefly, after 24 h of cell treatments, 0.5 mg/mL of MTT was added to cells for 4 h at 37 °C. Then, the resultant precipitate was dissolved in 10% SDS and quantified at a wavelength of 570 nm.

Assay [6] has as its system N27 cells. The assay can be described thus: Neuroprotection against 6-OHDA-induced toxicity (MTT). Type of assay: cell-based, rat. The note with it: 24 h; for protection against 6-OHDA-induced neurotoxicity: 10 and 50 µM together with 50 µM 6-OHDA. On the procedure:
The immortalized rat mesencephalic dopaminergic cell line (N27 cells; a kind gift from Dr. Yoon-Seong Kim, Burnett School of Biomedical Sciences, University of Central Florida) was grown in Roswell Park Memorial Institute (RPMI) 1640 medium (Sigma-Aldrich) containing 2 g/L sodium bicarbonate, 10% fetal bovine serum (FBS; Millipore), and 1 mL/L of penicillin/streptomycin (GIBCO) in a humidified atmosphere of 5% CO2 at 37 °C. Cells were plated at a density of 0.31 × 10^5 cells per cm^2 in 96-well culture plates. In the MTT assay, N27 cells were incubated in the presence of several compounds with 50 μM of 6-OHDA. To assess cell viability, MTT reduction was performed as previously described (Section 2.3) with some modifications. Briefly, after 24 h of cell treatments, 0.5 mg/mL of MTT was added to cells for 4 h at 37 °C. Then, the resultant precipitate was dissolved in 10% SDS and quantified at a wavelength of 570 nm.

Assay [7] deals with T47-D cells (breast cancer). The arrangement: method as in PMID 23635011. The note with it: MTT assay, read-out: IC50 against T47-D cells; cited from earlier work.
The test system of assay [8] is MCF-7 cells (estrogen-responsive breast cancer cells). Kind of assay: MTT cell proliferation assay, MCF-7 cells. Type of assay: cell-based. The note with it: MTT, 72 h, tumoral cells; read-out: Estimated IC50, MCF-7. The procedure:
as §1, §2, §3

The subject of assay [9] is LNCaP cells (androgen-dependent prostatic cancer). The assay can be described thus: MTT cell proliferation assay, LNCaP cells. Type of assay: cell-based. The note with it: 72 h. On the procedure:
as §1, §2, §3

The subject of assay [10] is all cell lines (NHDF, PNT1A, N27, LNCaP, PC-3, MCF-7). The assay can be described thus: MTT preliminary screening, all cell lines taken together. Format: cell-based. The note with it: 50 µM, 72 h. The procedure:
as §1, §2, §3

What is called IC50 is the concentration that gives 50% inhibition.

Entries after “also recorded” stand apart in the source; their conditions may differ. Some results are limits rather than exact numbers.

On to `C[C@]12CC[C@H]3[C@@H](C[C@@H]4O[C@@]45C[C@@H](O)CC[C@]35C)[C@@H]1C/C(=C\c1ccco1)C2=O` [Compound 20, (E)-16-(Furan-2-ylmethylene)-3-hydroxy-5α ,6α -epoxy-10,13-dimethyl-1,3,4,7,8,9,10,11,12,13,15,16-dodecahydro-2H-cyclopenta[α ]phenanthren-17(14H)-one], for which the figures for the IC50 in assay [1], in assay [2] and in assay [3] were 50 µM, 56.6 µM and 64.5 µM, respectively. For the same molecule, the “decrease on cell proliferation relative to the control” value in assay [4] was “higher than 75%”. For the same molecule, the “effect on N27 cell viability” value in [5] was “did not affect cell viability”. Further, the “protection against 6-OHDA-induced neurotoxicity” value (“protection” below) in assay [6] is “did not counteract; also recorded: no significant neuroprotection”.

Take `CC12CCC3C(CC4OC45CC(O)CCC35C)C1CCC2C(=O)C=Cc1ccccc1` (stereo not drawn) [cD, 21E-benzylidene-5α,6α-epoxipregnenolone, reference compound]: the “effect on N27 cell viability” value in assay [5] is “did not affect cell viability”. The “protection” value in assay [6] is on record as “did not protect”.

For the molecule `CC12CCC3C(CC=C4CC(O)CCC43C)C1C/C(=C\c1ccc(Cl)cc1Cl)C2=O` (stereo not drawn) [Compound 9, (E)-16-(2,4-Dichlorobenzylidene)-3-hydroxy-10,13-dimethyl-1,3,4,7,8,9,10,11,12,13,15,16-dodecahydro-2H-cyclopenta[α]phenanthren-17(14H)-one], the concentration for half-maximal inhibition (IC50) in [7] was over 100 µM.

For the molecule `CC12CCC3C(CC=C4CC(O)CCC43C)C1C/C(=C\c1ccc([N+](=O)[O-])cc1)C2=O` (stereo not drawn) [Compound 4, (E)-16-(4-Nitrobenzylidene)-3-hydroxy-10,13-dimethyl-1,3,4,7,8,9,10,11,12,13,15,16-dodecahydro-2H-cyclopenta[α]phenanthren-17(14H)-one], in [7], the IC50 is over 100 µM.

Take `CC12CCC3C(CC4OC45CC(O)CCC35C)C1CC(=Cc1ccc([N+](=O)[O-])cc1)C2=O` (stereo not drawn) [Compound 17, (E)-16-(4-Nitrobenzylidene)-3-hydroxy-5α ,6α -epoxy-10,13-dimethyl-1,3,4,7,8,9,10,11,12,13,15,16-dodecahydro-2H-cyclopenta[α ]phenanthren-17(14H)-one]: the IC50 in assay [1] was 32.3 µM; in [2], over 100 µM; in [3], over 100 µM; in assay [8] it was 20.8 µM. In addition, the “effect on N27 cell viability” value in assay [5] is listed as “did not affect cell viability”. Further, the “fold-increase in cell viability compared to 10 µM of the respective compound” value in assay [5] turned out to be 1.59 fold. Also, in [5], the “fold-increase in cell viability compared to the control” value was determined as 1.53 fold. The “protection” value in [6] is listed as “did not counteract; also recorded: no significant neuroprotection”.

In the case of `CC12CCC3C(CC4OC45CC(O)CCC35C)C1CC(=Cc1ccc(Cl)o1)C2=O` (stereo not drawn) [Compound 27, (E)-16-[(5-Chlorofuran-2-yl)methylene]-3-hydroxy-5α ,6α -epoxy-10,13-dimethyl-1,3,4,7,8,9,10,11,12,13,15,16-dodecahydro-2H-cyclopenta[α ]phenanthren-17(14H)-one], the IC50 in [1] is 18.4 µM; in assay [2], 19.5 µM; in assay [3], 42.4 µM; in assay [9] (MTT, tumoral cells, read-out: Estimated IC50, LNCaP), 15.8 µM; in [8] it was 56.9 µM. Also, the “effect on LNCaP cell proliferation” value in assay [9] (LNCaP, 10 µM) is given as “no relevant effects”. Moreover, in [9] (LNCaP, 50 µM), the “decrease in LNCaP cell proliferation” value is “higher than 75%”. In assay [10], this molecule registered a relative cell proliferation of at most 50%. Besides, in [5], the “effect on N27 cell viability” value is on record as “did not affect cell viability”. For the same molecule, the “fold-increase in cell viability compared to 10 µM of the respective compound” value in assay [5] was found to be 1.41 fold. In addition, the “fold-increase in cell viability compared to the control” value in assay [5] stood at 1.25 fold. The “fold-decrease in cell viability compared to 6-OHDA alone” value in assay [6] (50 µM together with 50 µM 6-OHDA) is listed as 0.9 fold. Moreover, the “protection” value in assay [6] is “did not counteract; also recorded: no significant neuroprotection”.
